From patent US20230303549A1, “SUBSTITUTED HETEROARYLOXYPYRIDINES, THE SALTS THEREOF AND THEIR USE AS HERBICIDAL AGENTS” (Bayer Aktiengesellschaft, priority 2020, published 2023)

Tests used:
Type in all cases: in vivo
[1] = system: Matricaria inodora (MATIN); test: Pre-emergence herbicide efficacy at 320 g/ha, greenhouse pot test; conditions: visual scoring vs untreated control after about 3 weeks
Text: (§1) Seeds of mono- and dicotyledonous weed plants were placed in plastic pots in sandy loam soil (doubly sown with in each case one species of mono- or dicotyledonous weed plants per pot) and covered with soil. The compounds of the invention, formulated in the form of wettable powders (WP) or as emulsion concentrates (EC), were then applied onto the surface of the covering soil as aqueous suspension or emulsion with addition of 0.5% additive at a water application rate of 600 liters per hectare (converted). After the treatment, the pots were placed in a greenhouse and kept under good growth conditions for the test plants. After about 3 weeks, the effect of the preparations was scored visually in comparison with untreated controls as percentages. For example, 100% activity=the plants have died, 0% activity=like control plants. Tables C1 to C12 below show the effects of selected compounds of the general formula (I) according to Table 1 on various harmful plants and an application rate corresponding to 320 g/ha, which were obtained by the experimental procedure mentioned above.

Veronica persica (VERPE) [2] = test: as above; conditions: visual scoring vs untreated control after about 3 weeks
Text: as §1

[3] = system: Alopecurus myosuroides (ALOMY); test: as above; conditions: visual scoring vs untreated control after about 3 weeks
Text: as §1

[4] = system: Echinochloa crus-galli (ECHCG); test: as above; conditions: visual scoring vs untreated control after about 3 weeks
Text: as §1

[5] = system: Abutilon theophrasti (ABUTH); test: as above; conditions: visual scoring vs untreated control after about 3 weeks
Text: as §1

Bassia scoparia (KCHSC) [6] = test: as above
Text: as §1

Stellaria media (STEME) [7] = test: as above; conditions: visual scoring vs untreated control after about 3 weeks
Text: as §1

Poa annua (POAAN) [8] = test: as above; conditions: visual scoring vs untreated control after about 3 weeks
Text: as §1

[9] = system: Amaranthus retroflexus (AMARE); test: as above; conditions: visual scoring vs untreated control after about 3 weeks
Text: as §1

Setaria viridis (SETVI) = test: as above; conditions: visual scoring vs untreated control after about 3 weeks
Text: as §1

[10] = system: Abutilon theophrasti (ABUTH); test: Post-emergence herbicidal efficacy at 320 g/ha, greenhouse pot test; conditions: visual rating vs untreated control after about 3 weeks
Procedure: (§2) Seeds of mono- and dicotyledonous weed plants were placed in plastic pots in sandy loam soil (doubly sown with in each case one species of mono- or dicotyledonous weed plants per pot), covered with soil and cultivated in a greenhouse under controlled growth conditions. 2 to 3 weeks after sowing, the test plants were treated at the one-leaf stage. The compounds of the invention, formulated in the form of wettable powders (WP) or as emulsion concentrates (EC), were applied onto the green parts of the plants as aqueous suspension or emulsion with addition of 0.5% additive at a water application rate of 600 liters per hectare (converted). After the test plants had been kept in the greenhouse under optimum growth conditions for about 3 weeks, the activity of the preparations was rated visually in comparison to untreated controls. For example, 100% activity=the plants have died, 0% activity=like control plants. Tables […] 11 below show the effects of selected compounds of the general formula (I) according to Table 1 on various harmful plants and an application rate corresponding to 320 g/ha, which were obtained by the experimental procedure mentioned above.

Bassia scoparia (KCHSC) [11] = test: as above; conditions: visual rating vs untreated control after about 3 weeks
Procedure: as §2

Poa annua (POAAN) [12] = test: as above; conditions: visual rating vs untreated control after about 3 weeks
Procedure: as §2

Veronica persica (VERPE) [13] = test: as above
Procedure: as §2

[14] = system: Alopecurus myosuroides (ALOMY); test: as above; conditions: visual rating vs untreated control after about 3 weeks
Procedure: as §2

Stellaria media (STEME) [15] = test: as above; conditions: visual rating vs untreated control after about 3 weeks
Procedure: as §2

[16] = system: Amaranthus retroflexus (AMARE); test: as above; conditions: visual rating vs untreated control after about 3 weeks
Procedure: as §2

Viola tricolor (VIOTR) [17] = test: Post-emergence herbicidal efficacy at 80 g/ha, greenhouse pot test; conditions: visual rating vs untreated control after about 3 weeks
Procedure: (§3) Seeds of monocotyledonous and dicotyledonous weeds and crop plants were placed in sandy loam in plastic or organic planting pots, covered with soil and cultivated in a greenhouse under controlled growth conditions. 2 to 3 weeks after sowing, the test plants were treated at the one-leaf stage. The compounds of the invention, formulated in the form of wettable powders (WP) or as emulsion concentrates (EC), were then sprayed onto the green parts of the plants as aqueous suspension or emulsion with addition of 0.5% additive at a water application rate of 600 l/ha (converted). After the test plants had been kept in the greenhouse under optimum growth conditions for about 3 weeks, the activity of the preparations was rated visually in comparison to untreated controls. For example, 100% activity=the plants have died, 0% activity=like control plants. Tables B1 to B6 below show the effects of selected compounds of the general formula (I) according to Table 1 on various harmful plants and an application rate corresponding to 80 g/ha, which were obtained by the experimental procedure mentioned above.

[18] = system: Amaranthus retroflexus (AMARE); test: as above; conditions: visual rating vs untreated control after about 3 weeks
Procedure: as §3

[19] = system: Abutilon theophrasti (ABUTH); test: Pre-emergence herbicide efficacy at 80 g/ha, greenhouse pot test; conditions: visual scoring vs untreated control after about 3 weeks
Text: (§4) Seeds of monocotyledonous and dicotyledonous weed plants and crop plants were placed in plastic or organic planting pots and covered with soil. The compounds of the invention, formulated in the form of wettable powders (WP) or as emulsion concentrates (EC), were then applied to the surface of the covering soil as aqueous suspension or emulsion with addition of 0.5% additive at a water application rate of […] (converted). After the treatment, the pots were placed in a greenhouse and kept under good growth conditions for the test plants. After about 3 weeks, the effect of the preparations was scored visually in comparison with untreated controls as percentages. For example, 100% activity=the plants have died, 0% activity=like control plants. Tables D1 to D12 below show the effects of selected compounds of the general formula (I) according to Table 1 on various harmful plants and an application rate corresponding to 80 g/ha, which were obtained by the experimental procedure mentioned above.

Viola tricolor (VIOTR) [20] = test: as above; conditions: visual scoring vs untreated control after about 3 weeks
Text: as §4

[21] = system: Amaranthus retroflexus (AMARE); test: as above; conditions: visual scoring vs untreated control after about 3 weeks
Text: as §4

[22] = 320 g/ha, visual scoring vs untreated control after about 3 weeks
[23] = 320 g/ha, visual rating vs untreated control after about 3 weeks
[24] = dosage 1280 g/ha in Table C6, visual scoring after about 3 weeks

Compound | Pre-emergence efficacy against Matricaria inodora (MATIN) [1] [%] | Pre-emergence efficacy against Veronica persica (VERPE) (Veronica persica (VERPE) [2]) [%] | Pre-emergence efficacy against Alopecurus myosuroides (ALOMY) [3] [%] | Pre-emergence efficacy against Echinochloa crus-galli (ECHCG) [4] [%] | Pre-emergence efficacy against Abutilon theophrasti (ABUTH) [5] [%] | Pre-emergence efficacy against Bassia scoparia (KCHSC) (Bassia scoparia (KCHSC) [6]; [22]) [%] | Pre-emergence efficacy against Stellaria media (STEME) (Stellaria media (STEME) [7]) [%] | Pre-emergence efficacy against Poa annua (POAAN) (Poa annua (POAAN) [8]) [%] | Pre-emergence efficacy against Amaranthus retroflexus (AMARE) [9] [%] | Pre-emergence efficacy against Setaria viridis (SETVI) (Setaria viridis (SETVI)) [%] | Post-emergence efficacy against Abutilon theophrasti (ABUTH) [10] [%] | Post-emergence efficacy against Bassia scoparia (KCHSC) (Bassia scoparia (KCHSC) [11]) [%] | Post-emergence efficacy against Poa annua (POAAN) (Poa annua (POAAN) [12]) [%] | Post-emergence efficacy against Veronica persica (VERPE) (Veronica persica (VERPE) [13]; [23]) [%] | Post-emergence efficacy against Alopecurus myosuroides (ALOMY) [14] [%] | Post-emergence action against Stellaria media (STEME) (Stellaria media (STEME) [15]) [%] | Post-emergence efficacy against Amaranthus retroflexus (AMARE) [16] [%] | Pre-emergence efficacy against Bassia scoparia (KCHSC) (Bassia scoparia (KCHSC) [6]; [24]) [%] | other results
Cc1cc(C)c(-c2cc(C(F)(F)F)on2)c(Oc2ncc(F)cn2)n1 [Example I-6] | 100 | 100 | 90 | 100 | 100 | 90 | 100 | 100 | 100 | 100 | 90 | 90 | 90 |  |  |  |  |  | 
Cc1cc(C)c(-c2cc(C(F)F)no2)c(Oc2cnc(Cl)cn2)n1 [Example I-11] | 100 | 100 | 100 |  | 90 | 90 | 100 | 100 | 100 | 90 |  | 90 |  | 100 | 90 | 100 | 100 |  | 
Cc1cc(C)c(-c2cc(C(F)F)no2)c(Oc2ncc(Cl)cc2F)n1 [Example I-14] | 100 |  |  |  | 100 |  | 100 | 100 | 100 | 100 | 90 | 100 |  |  | 100 | 100 | 90 | 100 | Post-emergence efficacy against Viola tricolor (VIOTR) (Viola tricolor (VIOTR) [17]): 100%; Post-emergence efficacy against Amaranthus retroflexus (AMARE) [18]: 100%; Pre-emergence efficacy against Abutilon theophrasti (ABUTH) [19]: 80%; Pre-emergence efficacy against Viola tricolor (VIOTR) (Viola tricolor (VIOTR) [20]): 100%; Pre-emergence efficacy against Amaranthus retroflexus (AMARE) [21]: 100%; Post-emergence efficacy against Veronica persica (VERPE) (Veronica persica (VERPE) [13]; dosage printed 80 g/ha in Table A9, visual rating after about 3 weeks): 100%
Cc1cc(C)c(-c2cc(C3CC3)no2)c(Oc2ncc(F)cn2)n1 [Example I-178] | 100 | 100 |  | 100 | 100 |  | 100 | 100 | 100 | 100 | 90 | 90 | 100 | 100 |  | 100 | 100 | 90 | 
Cc1cc(C)c(-c2cc(C3CC3)no2)c(Oc2ncc(Cl)cn2)n1 [Example I-179] | 100 | 90 |  | 100 | 100 |  | 100 | 100 | 100 | 100 | 90 | 90 | 90 | 100 |  | 100 | 90 | 90 | 
Cc1cc(C)c(-n2cc(I)cn2)c(Oc2ncc(Cl)cn2)n1 [Example I-295] | 100 | 90 |  | 90 | 100 |  | 100 | 90 | 100 | 100 |  | 90 |  | 100 |  | 90 | 90 | 100 | 
